{
  "source": "paper PMC6515479",
  "about": "“An Investigation on Glucuronidation Metabolite Identification, Isozyme Contribution, and Species Differences of GL-V9 In Vitro and In Vivo” (Molecules, 2019)",
  "key": {"rUGT1A3": {"target": "T1, rUGT1A3 (Homo sapiens, UniProt P35503)", "T1 construct": "purchased Corning (Woburn, MA, USA)", "T1 sequence (P35503 29-534)": "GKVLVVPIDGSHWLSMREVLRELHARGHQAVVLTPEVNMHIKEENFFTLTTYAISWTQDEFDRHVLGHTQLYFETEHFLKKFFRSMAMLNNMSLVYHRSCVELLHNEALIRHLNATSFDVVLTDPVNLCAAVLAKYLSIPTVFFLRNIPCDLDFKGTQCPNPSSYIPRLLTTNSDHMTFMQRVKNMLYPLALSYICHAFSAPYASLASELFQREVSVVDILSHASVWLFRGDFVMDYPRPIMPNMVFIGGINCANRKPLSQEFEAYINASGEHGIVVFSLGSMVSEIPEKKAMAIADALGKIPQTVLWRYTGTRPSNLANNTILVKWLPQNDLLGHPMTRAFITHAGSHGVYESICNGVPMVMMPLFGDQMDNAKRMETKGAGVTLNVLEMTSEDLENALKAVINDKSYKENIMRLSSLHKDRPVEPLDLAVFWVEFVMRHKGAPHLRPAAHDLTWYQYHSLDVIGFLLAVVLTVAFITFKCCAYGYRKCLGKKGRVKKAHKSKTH", "experiment": "UGT phenotyping of GL-V9 glucuronidation, rUGT1A3", "assay_type": "in vitro ADME", "details": "GL-V9 0.5, 1, 5 μM, 37 °C, 1 h", "method": "(§1) The composition of the incubation system (200 μL) contained liver microsomes of different species (0.1 mg protein/mL), 5 mM saccharolactone (D-saccharic acid 1,4-lactone monohydrate), 10 mM MgCl2, alamethicin (50 μg/mg protein), Tris-HCl buffer (50 mM, pH 7.4) and GL-V9 (1 μM). After 5 min of preincubation at 37 °C, UDPGA (5 mM) was added to initiate the phase II reaction. Control incubation samples were performed without UDPGA or without substrates (GL-V9). The reaction was terminated by addition of ice-cold methanol (three volumes) after incubation for 1 h at 37 °C. Samples were vortexed, centrifuged at 21,500× g for 10 min and then stored at 4 °C until HPLC-UV-TripleTOF analysis. To confirm that these metabolites are conjugates resulting from glucuronidation reaction, enzymatic hydrolysis of samples was processed. β-glucuronidase (100 KU, Sigma) was added and the hydrolysis was performed overnight at 37 °C. The control samples were carried out without β-glucuronidase under the same condition.\n(§2) Twelve human recombinant UGT isoforms (rUGT1A1, rUGT1A3, rUGT1A4, rUGT1A6, rUGT1A7, rUGT1A8, rUGT1A9, rUGT1A10, rUGT2B4, rUGT2B7, rUGT2B15, and rUGT2B17) were employed to identify the main UGT enzyme(s) responsible for glucuronidation of GL-V9 under mixture conditions as described in Section 4.3. […]"}, "rUGT2B4": {"target": "T2, rUGT2B4 (Homo sapiens, UniProt P06133)", "T2 construct": "purchased Corning (Woburn, MA, USA)", "T2 sequence (P06133 24-528)": "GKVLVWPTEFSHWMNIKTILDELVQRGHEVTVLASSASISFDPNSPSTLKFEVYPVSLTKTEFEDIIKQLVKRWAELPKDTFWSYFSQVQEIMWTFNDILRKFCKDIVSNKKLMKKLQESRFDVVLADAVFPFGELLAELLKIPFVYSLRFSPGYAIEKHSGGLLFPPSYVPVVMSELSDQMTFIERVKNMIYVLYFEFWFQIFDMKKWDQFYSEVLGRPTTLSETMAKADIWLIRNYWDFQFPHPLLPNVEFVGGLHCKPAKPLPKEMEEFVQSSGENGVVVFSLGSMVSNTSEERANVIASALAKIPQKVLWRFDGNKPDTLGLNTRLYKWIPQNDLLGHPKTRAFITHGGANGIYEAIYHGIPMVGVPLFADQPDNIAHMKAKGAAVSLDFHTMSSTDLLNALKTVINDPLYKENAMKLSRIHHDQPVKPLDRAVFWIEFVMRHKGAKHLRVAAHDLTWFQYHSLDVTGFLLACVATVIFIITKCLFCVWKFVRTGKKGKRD", "experiment": "UGT phenotyping of GL-V9 glucuronidation, rUGT2B4", "assay_type": "in vitro ADME", "details": "GL-V9 0.5, 1, 5 μM, 37 °C, 1 h", "method": "as §1, §2"}},
  "data": [
    {"smiles": "COc1c(OCCCCN2CCCC2)cc(O)c2c(=O)cc(-c3ccccc3)oc12", "note": "[GL-V9]", "values": [
      {"measurement": "Metabolism rate (glucuronidation)", "setting": "rUGT1A3", "result": "too low to be biologically relevant"},
      {"measurement": "Catalytic activity in the production of 5-O-glucuronide GL-V9", "setting": "rUGT2B4", "result": "did not show apparent catalytic activity"}
    ]}
  ]
}
